# Data as given in patent publication US10946019B2, “Nurr1:RXR activating compounds for simultaneous treatment of symptoms and pathology of Parkinson's disease” (priority 2015, dated 2021).
# Entries after “also recorded” stand apart in the source; their conditions may differ.
# Legend:
# [1] = molecular target: RXRαVP16 heterodimer chimeras with VDRGAL4 (Homo sapiens (Human), UniProt P19793); test: GAL4/VP16 chimera specificity luciferase assay in SHSY-5Y; type: cell-based; conditions: GAL4-responsive luciferase reporter
# Procedure: (§1) Compound 3 specifically activates Nurr1:RXRα heterodimers over other RXR-containing transcription co-activator complexes. Specificity assays fusing DNA sequences of the gal4 DNA binding domain to the nuclear receptor Ligand-Binding-Domain (LDB) and to vp16 were performed as follows: Human SHSY-5Y cells were cotransfected with 20 ng of MH100-tk -luciferase, 10 ng of CMX-bgal, 20 ng of CMX-GAL4-RXRα-LBD and 20 ng of CMX-VP16-NR-LBD, where NR stands for either Nurr1, VDR, PPARγ. CMX-VP16-VDR-LBD and CMX-VP16-PPARγ-LBD were kindly provided by Dr Makishima ([…]). CMX-VP16-Nurr1-LBD was produced by cloning the Nurr1 LBD in the CMX-VP16 vector using KpnI. More specifically, Nurr1-LBD was isolated by PCR from a vector containing the Nurr1 cDNA using a set of primers flanking the Nurr1 LBD sequence and carrying at both sides the KpnI restriction sites, namely Nurr1 Forward […] (SEQ ID NO: 1) and Nurr1 Reverse […] (SEQ ID NO: 2). To exclude the possibility that compound 3 might transactivate RXRγ:Nurr1 heterodimers, CMX-GAL4-RXRγ-LBD was constructed by cloning the RXRγ LBD that was isolated by PCR from a vector containing the RXRγ cDNA (RIKEN, Tokyo, Japan) using the following Forward and Reverse primers carrying KpnI and NheI restriction sites, respectively, namely RXRγ Forward […] (SEQ ID NO: 3) and RXRγ LBD Reverse […] (SEQ ID NO: 4). 17 hours after transfection the compound was added to the medium at the corresponding concentrations and left for another 12 hours. Then the cells were assayed for luciferase activity normalized to galactosidase activity.
# (§2) To test off-target effects of compound 3 on complexes aside from Nurr1:RXRα heterodimers, we fused the ligand binding domains of Nurr1, RXRα and a variety of related nuclear receptors to GAL4 DNA-binding domain to create chimeric proteins, while the ligand-binding domain of RXRα was also fused with VP16. These molecular chimeras were co-transfected in pairs with the RXRα:VP16 along with a GAL4-responsive luciferase reporter in SHSY-5Y, which were stimulated with compound 3. […] The above experiments indicate the high degree of selectivity of compound 3 and point to its neuroprotective potential.
# [2] = molecular target: Nurr1GAL4:RXRαVP16 heterodimer chimeras (Homo sapiens (Human), UniProt P19793); test: as above; type: cell-based; conditions: GAL4-responsive luciferase reporter
# Procedure: as §1, §2
# [3] = molecular target: RXRαGAL4 homodimer chimeras (Homo sapiens (Human), UniProt P19793); test: as above; type: cell-based; conditions: GAL4-responsive luciferase reporter
# Procedure: as §1, §2
# [4] = molecular target: RXRαVP16 heterodimer chimeras with RXRγGAL4 (Homo sapiens (Human), UniProt P19793); test: as above; type: cell-based; conditions: GAL4-responsive luciferase reporter
# Procedure: as §1, §2
# [5] = molecular target: RXRαVP16 heterodimer chimeras with PPARγGAL4 (Homo sapiens (Human), UniProt P19793); test: as above; type: cell-based; conditions: GAL4-responsive luciferase reporter
# Procedure: as §1, §2
# AAV-ASYN injected mice = test: Neuroprotection in the AAV-ASYN mouse model; type: in vivo; conditions: 10 mg/kg every 12 h for 2 weeks, vs vehicle
# Procedure: Because the predictive validity of toxin-based mouse PD models for neuroprotection in humans is questionable, we proceeded to test the effect of compound 3 in a mouse model, where AAV viruses overexpressing wt alpha-synuclein (AAV-ASYN) under the chicken beta-actin promoter were unilaterally injected, combined with contralateral injections of (AAV-GFP). The same compound 3 (10 mg/kg every 12 h for 2 weeks) or vehicle treatment regimen was followed as in the toxin models.
# striatum 5HT levels = test: Striatal 5-HT and 5-HIAA levels by HPLC-ECD; type: in vivo, mouse; conditions: C57/BL6 mice, IP 20 mg/kg, 4 h post injection
# Procedure: We measured striatal 5-HT levels, and we detected 5-HT and 5-HIAA in wild type C57/BL6 mice. 4 hours after dosing animals were killed by cervical dislocation, brains were removed, and the striata were dissected on ice. The samples were immediately frozen and stored at −80° C. until use. The tissues were processed for the analysis by high performance liquid chromatography (HPLC) with an electrochemical detector (ECD) (Emmanouil et al., 2006). The dissected tissues were weighed, homogenized, and deproteinized in 0.2 N perchloric acid solution containing 7.9 mM Na2S2O5 and 1.3 mM Na2EDTA. The homogenate was centrifuged at 37,000×g for 30 minutes, and the supernatant was stored at −80° C. until assayed. A reverse-phase ion-pair chromatography was used in all analyses, and the mobile phase consisted of an acetonitrile-50 mM phosphate buffer at pH 3.0, containing 5-octylsulfate sodium salt (300 mg/L) as the ion-pair reagent and (20 mg/L) Na2EDTA. Reference standards were prepared in 0.2 N perchloric acid solution containing 7.9 mM Na2S2O5 and 1.3 mM Na2EDTA. Samples were quantified by comparison of the areas under the peaks with those of reference standards using HPLC software (Chromatography Station for Windows™, Watrex International Inc., San Francisco, Calif.) (FIG. 3C).
# c-jun = test: Midbrain c-jun expression by qPCR after administration to mice; type: in vivo, mouse; conditions: IP compound 3, qPCR 2 hours after administration
# Procedure: FIGS. 69A-69C show the brain penetration, half-life, and c-jun transcriptional activation of compound 3. […] Mice (n=5) were sacrificed 1, 2, 4, 8 and 24 hours after IP administration and brains were dissected 1, 2, 4, 8 and 24 hours post administration. The concentrations of the parent compound in plasma and brain were determined by LC/MSMS.
# To assess the neuroprotective effect of compound 3, this compound was dosed to wt mice intraperitoneally (IP) at 10 mg/kg injections of compound 3 in Ethanol:PG:Saline 10:30:60. After 2 h and 4 h animals (n=3 per time point) were sacrificed, and their brains obtained. After extraction c-jun and tyrosine hydroxylase (TH) levels in brain extract were determined by qPCR (FIG. 1E, 1F).
# Nurr1:RXRα heterodimer = Nurr1:RXRα heterodimer (Homo sapiens (Human), UniProt P19793); test: Nurr1:RXRα-dependent luciferase reporter (DR5-TK-Luc) transactivation assay; type: cell-based; conditions: SHSY-5Y, luciferase
# Procedure: The in vitro transactivation assay determined the capacity of the compounds of the invention to activate the Nurr1:RXR heterodimers. Naive SHSY-5Y cells were transiently co-transfected, using Lipofectamine 2000 (Invitrogen), with a plasmid expressing the human receptor Nurr1, a plasmid expressing the RXR human receptor (RXRα or RXRγ receptor) and a reporter plasmid DR5-TK-Luc. […] After incubation overnight, the expression of luciferase was measured (FIG. 1A).
# [6] = system: Nurr1 heterozygote 129/SV mice treated with MPTP; test: Neuroprotection against MPTP in Nurr1 heterozygote 129/SV mice; type: in vivo, mouse; conditions: Nurr1 heterozygote (Nurr1+/−) 129/SV mice
# Procedure: 20 mg/kg MPTP injections were administered 4 times at the zero day of treatment, spaced 2 hours apart. 7 days after the MPTP injections there was approximately an 80% reduction in striatal projections and 40%-50% dopaminergic neuron death in the SN.
# RXRαVP16 heterodimer chimeras with RXRγGAL4, sequence (P19793 whole entry, looked up, change not shown, the tested form may be a part): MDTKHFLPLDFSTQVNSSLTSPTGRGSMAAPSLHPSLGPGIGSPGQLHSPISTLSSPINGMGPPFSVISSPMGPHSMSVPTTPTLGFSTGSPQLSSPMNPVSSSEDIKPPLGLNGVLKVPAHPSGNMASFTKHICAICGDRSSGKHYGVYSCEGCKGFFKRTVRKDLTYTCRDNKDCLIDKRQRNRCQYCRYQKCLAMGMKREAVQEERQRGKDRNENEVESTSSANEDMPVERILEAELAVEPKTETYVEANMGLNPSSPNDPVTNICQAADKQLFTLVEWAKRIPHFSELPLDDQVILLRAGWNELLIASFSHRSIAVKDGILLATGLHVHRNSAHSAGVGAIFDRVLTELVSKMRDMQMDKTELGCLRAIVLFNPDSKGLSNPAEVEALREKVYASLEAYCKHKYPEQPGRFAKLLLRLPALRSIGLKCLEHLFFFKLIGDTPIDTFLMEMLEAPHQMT
# RXRαVP16 heterodimer chimeras with RXRγGAL4, sequence (P48443 whole entry partner, looked up, the tested form may be a part): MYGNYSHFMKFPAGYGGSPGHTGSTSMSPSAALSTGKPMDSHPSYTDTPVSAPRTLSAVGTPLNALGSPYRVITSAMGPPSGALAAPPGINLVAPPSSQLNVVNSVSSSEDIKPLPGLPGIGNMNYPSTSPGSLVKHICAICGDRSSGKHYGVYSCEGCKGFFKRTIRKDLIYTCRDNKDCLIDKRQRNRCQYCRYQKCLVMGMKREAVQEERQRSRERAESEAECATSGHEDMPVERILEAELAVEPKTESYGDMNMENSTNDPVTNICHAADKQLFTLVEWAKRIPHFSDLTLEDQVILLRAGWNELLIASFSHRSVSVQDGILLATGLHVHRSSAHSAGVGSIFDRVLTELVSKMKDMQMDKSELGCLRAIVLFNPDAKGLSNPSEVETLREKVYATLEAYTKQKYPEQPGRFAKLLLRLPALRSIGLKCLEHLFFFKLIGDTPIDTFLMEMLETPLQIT
# RXRαVP16 heterodimer chimeras with PPARγGAL4, sequence (P19793 whole entry, looked up, change not shown, the tested form may be a part): as the sequence (P19793 whole entry, looked up, change not shown, the tested form may be a part) above
# RXRαVP16 heterodimer chimeras with PPARγGAL4, sequence (P37231 whole entry partner, looked up, the tested form may be a part): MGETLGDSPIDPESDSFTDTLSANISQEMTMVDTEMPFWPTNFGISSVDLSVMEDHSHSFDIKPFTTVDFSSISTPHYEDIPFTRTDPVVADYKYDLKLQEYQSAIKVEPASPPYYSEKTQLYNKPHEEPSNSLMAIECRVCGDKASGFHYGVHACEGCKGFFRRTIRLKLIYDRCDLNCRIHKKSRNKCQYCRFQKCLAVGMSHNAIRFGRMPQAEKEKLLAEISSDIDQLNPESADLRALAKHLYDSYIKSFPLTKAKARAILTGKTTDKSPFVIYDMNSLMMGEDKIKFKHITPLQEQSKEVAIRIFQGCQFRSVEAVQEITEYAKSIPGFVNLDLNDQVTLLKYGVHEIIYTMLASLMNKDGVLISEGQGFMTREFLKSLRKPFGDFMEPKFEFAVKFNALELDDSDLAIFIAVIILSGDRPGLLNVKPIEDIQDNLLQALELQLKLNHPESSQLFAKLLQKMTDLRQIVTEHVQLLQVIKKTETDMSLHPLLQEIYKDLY
# Nurr1GAL4:RXRαVP16 heterodimer chimeras, sequence (P19793 whole entry, looked up, change not shown, the tested form may be a part): as the sequence (P19793 whole entry, looked up, change not shown, the tested form may be a part) above
# Nurr1GAL4:RXRαVP16 heterodimer chimeras, sequence (P43354 whole entry partner, looked up, the tested form may be a part): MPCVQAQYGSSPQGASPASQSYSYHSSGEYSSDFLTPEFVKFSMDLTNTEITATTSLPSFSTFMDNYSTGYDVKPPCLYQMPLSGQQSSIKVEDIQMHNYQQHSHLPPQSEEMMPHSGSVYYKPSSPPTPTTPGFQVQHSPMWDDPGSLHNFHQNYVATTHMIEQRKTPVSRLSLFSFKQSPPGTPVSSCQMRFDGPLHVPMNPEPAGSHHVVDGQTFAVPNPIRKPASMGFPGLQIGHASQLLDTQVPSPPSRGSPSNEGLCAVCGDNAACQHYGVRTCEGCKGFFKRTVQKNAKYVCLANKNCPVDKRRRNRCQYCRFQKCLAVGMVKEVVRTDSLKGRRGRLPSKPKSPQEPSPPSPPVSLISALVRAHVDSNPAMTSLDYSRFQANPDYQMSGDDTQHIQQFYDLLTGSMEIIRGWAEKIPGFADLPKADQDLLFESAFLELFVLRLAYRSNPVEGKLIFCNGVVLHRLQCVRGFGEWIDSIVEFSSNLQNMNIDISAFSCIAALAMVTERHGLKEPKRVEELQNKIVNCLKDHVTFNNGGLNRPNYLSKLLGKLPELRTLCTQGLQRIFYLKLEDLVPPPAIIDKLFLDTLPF
# Nurr1:RXRα heterodimer, sequence (P19793 whole entry): as the sequence (P19793 whole entry, looked up, change not shown, the tested form may be a part) above
# Nurr1:RXRα heterodimer, sequence (P43354 whole entry partner): as the sequence (P43354 whole entry partner, looked up, the tested form may be a part) above
# RXRαVP16 heterodimer chimeras with VDRGAL4, sequence (P19793 whole entry, looked up, change not shown, the tested form may be a part): as the sequence (P19793 whole entry, looked up, change not shown, the tested form may be a part) above
# RXRαVP16 heterodimer chimeras with VDRGAL4, sequence (P11473 whole entry partner, looked up, the tested form may be a part): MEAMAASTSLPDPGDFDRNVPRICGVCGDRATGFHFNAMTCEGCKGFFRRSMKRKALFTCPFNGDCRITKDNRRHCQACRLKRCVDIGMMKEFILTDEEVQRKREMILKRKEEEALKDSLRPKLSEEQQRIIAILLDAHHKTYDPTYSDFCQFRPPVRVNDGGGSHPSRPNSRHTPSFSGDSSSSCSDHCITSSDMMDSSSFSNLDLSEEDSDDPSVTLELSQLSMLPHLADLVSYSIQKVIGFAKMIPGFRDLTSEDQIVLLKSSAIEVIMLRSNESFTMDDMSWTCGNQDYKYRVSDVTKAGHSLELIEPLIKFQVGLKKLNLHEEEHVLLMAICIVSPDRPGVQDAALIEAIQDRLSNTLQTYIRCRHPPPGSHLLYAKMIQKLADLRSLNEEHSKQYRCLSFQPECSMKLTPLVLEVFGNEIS
# RXRαGAL4 homodimer chimeras, sequence (P19793 whole entry, looked up, change not shown, the tested form may be a part): as the sequence (P19793 whole entry, looked up, change not shown, the tested form may be a part) above
# RXRαGAL4 homodimer chimeras, sequence (P19793 whole entry, looked up, change not shown, the tested form may be a part): as above
smiles,measurement,setting,value
"C=CCc1c(N(C)c2ccc(C(=O)O)cc2)nc(-c2ccccc2)nc1C(F)(F)F [Example 3, 4-((5-allyl-2-phenyl-6-(trifluoromethyl)pyrimidin-4-yl)(methyl)amino)benzoic acid]",activation of VDRGAL4:RXRαVP16 chimeras,[1],failed to activate
same,activation of Nurr1GAL4:RXRαVP16 heterodimer chimeras,[2],strongly activated
same,activation of RXRαGAL4 homodimer chimeras,[3],failed to activate
same,activation of RXRγGAL4:RXRαVP16 chimeras,[4],failed to activate
same,activation of PPARγGAL4:RXRαVP16 chimeras,[5],failed to activate
same,number of NeuN(+) midbrain neurons,AAV-ASYN injected mice,increased
same,increase of TH(+) midbrain neurons,AAV-ASYN injected mice; listed as Compound 3,48%
same,increase of TH(+) midbrain neurons,AAV-ASYN injected mice; listed as compound 3,about 47%
same,striatum 5HT levels and 5HT metabolite 5HIAA levels,striatum 5HT levels,increased
same,midbrain c-jun expression,c-jun,increased
same,activation of Nurr1:RXRα heterodimers,Nurr1:RXRα heterodimer,activated
same,neuroprotection against MPTP toxicity (surviving neuronal bodies),[6],did not lead to a statistically significant increase; also recorded: abolished
